Consider two molecules from patent US20060058383A1 (priority 2004, published 2006).

The structures appear in SMILES notation. pIC50: −log10 of the molar value. Where only a bound is given, the exact number is not on record here.

Data set [1] concerns human leukemia HL-60 cell line. Briefly: Depletion of cellular ATP pool (PCA extraction, HPLC). To be noted: for concentration that completely depleted cellular ATP: 12 h incubation, HL-60. The format is cell-based. On the procedure: (§1) Cells were incubated with the indicated concentrations of S-Glycolycin or 3-BrPA for 12 h. Cellular ATP was extracted by 0.4 N PCA, neutralized with KOH, and quantified by HPLC analysis. […] Incubation of cells with 0.03 mM S-Glycolycin completely depleted cellular ATP in both cell lines, while it required a 10-fold greater concentration (0.3 mM) of 3-BrPA to achieve the same degree of ATP depletion.

Data set [2] in a line: Stability of neutral drug solution on storage.
For data set [3], the system named is respiration-deficient subclone HL-60/C6F cells. Briefly: Depletion of cellular ATP pool (PCA extraction, HPLC). The format is cell-based, human. To be noted: 12 h incubation. On the procedure: as §1
The test system of data set [4] is HL-60/AR cells. Briefly: MTT cytotoxicity, drug-resistant clone versus parental cells. In kind it is cell-based, human. To be noted: MTT assay. As to the method: HL-60 cell line and its drug-resistant clone HL-60/AR were incubated with the indicated concentrations of doxorubicin, vincristine, and 3-BrPA for 72 h. Cytotoxicity was measured by MTT assay. […] Based on the teachings provided herein, studies may be performed to determine the sensitivity of HL-60/AR cells to Glycolycin.
Ara-C, a drug commonly used in the frontline treatment of leukemia, was used in parallel experiments. Cytotoxicity was measured by MTT assay.

The test system of data set [5] is HL-60 cells. Briefly: Induction of apoptosis, annexin-V/PI flow cytometry. The format is cell-based, human. To be noted: 30 μM; 24 h. As to the method:
HL-60 cells were incubated with the indicated concentrations of S-Glycolycin or 3-BrPA for 24 h. Apoptosis was measured by double staining with annexin-V and PI, followed by flow cytometry analysis. […] Incubation of HL-60 cells with 30 μM of S-Glycolycin caused more 90% cells to undergo apoptosis in 24 h, whereas the same concentration of 3-BrPA killed less than 20% of the cells within the same time period.

Data set [6] relates to HL-60/AR cells. Put plainly: Combination cytotoxicity in multi drug resistant cells, annexin-V/PI assay 24 h. The format is cell-based, human. Particulars: multi drug resistant HL-60/AR cells.
For data set [7], the system named is human colon cancer (HCT116) cells. Briefly: Sensitivity under hypoxic versus normoxic conditions, annexin-V/PI assay. In kind it is cell-based. An excerpt:
(§2) Cancer cells in solid tumors have to adapt to the hypoxia environment due to insufficient blood supply. Under hypoxia conditions, cancer cells use the glycolytic pathway to generate ATP without consuming oxygen. This metabolic adaptation also renders cancer cells relatively resistant to anticancer agents and radiation therapy, partially due to up-regulation of expression of cell survival factors such as HIF-1α. […] However, because under hypoxia condition cancer cells dependent on glycolysis for generation of ATP, it is contemplated that such cancer cells are vulnerable to glycolytic inhibition by Glycolycin. […] Thus, it is envisioned that Glycolycin can be use for effective treatment of many solid tumors, either as a single agent or in combination with other anticancer agents.

For data set [8], the system named is HL-60 cells. Briefly: MTT assay, in vitro cytotoxic activity before and after storage of drug solutions. The format is cell-based, human. Particulars: pH 7.0, 72 h drug incubation.
The subject of data set [9] is respiration-deficient clones HL-c6/ρ^0-C6F and Raji-C6. Briefly: Cytotoxicity in respiration-deficient clones, annexin-V/PI and colony formation. The format is cell-based, human. As to the method: Initial studies have been performed to test the sensitivity of respiration-competent leukemia cells (parental HL-60) and lymphoma cells (parental Raji) in comparison with their respiration-deficient clones HL-c6/ρ^0-C6F and Raji-C6. The mitochondria-defect cell lines were established by the present inventors and others (Pelicano et al., 2003). Cells were incubated with the indicated concentrations of 3-BrPA, and cytotoxicity was measured by two different assays: annexin-V/PI staining and colony formation assay.

In data set [10] the test system is colon cancer cells without p53 expression. Briefly: Sensitivity of colon cancer cells without p53. In kind it is cell-based, human. To be noted: separate experiment. On the procedure:
(§3) The effect of Glycolycin on human colon cancer cells (HCT116) and human brain tumor cells (U87MG) were tested using MTT assays for a 72 hour incubation. […] The IC50 value of S-Glycolycin for brain tumor U87MG cells is approximately 30 μM. […] This is of clinical significance, since the majority of human cancers are defective in p53 function and show reduced response to radiotherapy and certain anticancer agents.

Data set [11] deals with HL-60 cells with high Bcl-2 expression. Briefly: MTT growth inhibition of Bcl-2 transfected cells. The format is cell-based, human. Particulars: MTT assay. As to the method: Cell growth inhibition was measured by MTT assay.
Increased expression of the anti-apoptotic molecule Bcl-2 has been associated with drug resistance in cancer cells. The over-expression of Bcl-2 in HL-60 cells was […] against the cytotoxic effect of S-Glycolycin. […] Thus, Glycolycin may be used to overcome drug resistance due to Bcl-2 over expression.

The subject of data set [12] is human colon cancer cells (HCT116). Put plainly: Colony formation under hypoxic conditions, with radiation. The format is cell-based. An excerpt:
It is known in the art that under hypoxic conditions, cancer cells become less sensitive to radiation therapy, partially due to up-regulation of expression of survival factors and less generation of free radicals without oxygen. However, under hypoxic conditions cancer cells depend on glycolysis for generation of ATP, which is the essential energy source for repair of the DNA damage caused by radiation. Thus, it is contemplated that Glycolycin can effectively deplete cellular ATP pool under hypoxic conditions and enhance the therapeutic activity of radiation. […] Combination of Glycolycin and radiation almost completely killed all cells plated (up to 200,000 cells/well). Thus, Glycolycin is an effective agent to enhance the effectiveness of radiotherapy.

A further data set has as its system primary CLL cells. Put plainly: MTT assay in primary leukemia cells. The format is cell-based, human.
For data set [13], the system named is BAD phosphorylation (Ser112) in HL-60 cells. Put plainly: BAD phosphorylation at Ser112, western blot. In kind it is cell-based, human. On the procedure: HL-60 cells were incubated with the indicated concentrations of each compound for 3 h. BAD and its phosphorylation at Ser112 were measured by western blot analysis, using the respective antibodies. β-Actin was also blotted as the protein loading control.
A time- and dose-dependent effect of S-Glycolycin on the expression level of pro-apoptotic factor BAD and its phosphorylation at Ser112 is provided in FIG. 18. HL-60 cells were incubated with the indicated concentrations of S-Glycolycin for various times. Total BAD protein and its phosphorylation at Ser112 were measured by western blot analysis using the respective antibodies. β-actin was also blotted as the protein loading control. […] Note that severe ATP depletion can be induced by S-Glycolycin at 30-50 μM, but not at 10 μM (FIG. 15).

Data set [14] concerns human lymphoma cells (Raji). Briefly: Sensitivity under hypoxic versus normoxic conditions, annexin-V/PI assay 24 h. The format is cell-based. Particulars: 40 μM. As to the method:
(Annexin-V/PI assay, 24 h)
as §2

The subject of data set [15] is BAD phosphorylation in primary CLL cells. Put plainly: BAD dephosphorylation in primary leukemia cells, western blot. In kind it is cell-based, human.
Another data set has as its system parental HL-60 cells. Briefly: Effect of glutamine on cytotoxic activity, apoptosis at 24 h. The format is cell-based, human. Particulars: 1 mM glutamine for 2 h. As to the method:
(§4) The effect of glutamine on the cytotoxic activity of S-Glycolycin in wild-type HL-60 cells and respiration-deficient C6F cells was compared. Parental HL-60 cells were incubated with the indicated concentrations of S-Glycolycin in the presence or absence of 1 mM glutamine for 2 h, washed, and re-cultured in fresh medium. Apoptosis was measured at 24 h. […] In FIG. 26, the respiration-deficient cells (HL-60-C6F) were incubated with the indicated concentrations of S-Glycolycin in the presence or absence of 1 mM glutamine for 2 h, washed, and re-cultured in fresh medium. Apoptosis was measured at 24 h. Thus, glutamine supplement offers some degree of protection for cells with competent mitochondrial function.

Data set [16] has as its system respiration-deficient C6F cells (HL-60-C6F). The data set is described as above. The format is cell-based, human. Particulars: 1 mM glutamine for 2 h. On the procedure:
as §4

The test system of data set [17] is human colon cancer cells (HCT116). Briefly: MTT assay, 72 hour incubation. The format is cell-based. Particulars: HCT-116. On the procedure: as §3
Data set [18] has as its system human brain tumor cells (U87MG). Briefly: MTT assay, 72 hour incubation. In kind it is cell-based. To be noted: U-87 MG. As to the method:
as §3

Consider `O=C(O)C(=O)CBr` [3-BrPA, 3-bromo-2-oxopropionic acid, reference compound], for which the “concentration that completely depleted cellular ATP” value in data set [1] and in data set [3] was 0.3 mM in each case. Besides, the “activity of solution after storage” value in data set [2] (kept at 4° C. for 3 weeks) is reported as “substantial loss of activity”. Moreover, in [2] (pH 7.0, kept at 4° C.), the “stability of solution at neutral pH” value is listed as “discoloration”. In addition, in the data set on HL-60/AR cells [4], the “sensitivity of HL-60/AR compared to parental HL-60 cells” value was “equally sensitive”. Also, in the data set with HL-60 cells [5], the cells undergoing apoptosis entry is on record as “less than 20%”. In the data set with HL-60/AR cells [6], the “effect of combination with ara-C or doxorubicin on cytotoxic activity” value is given as “significantly enhance the cytotoxic activity”. Also, the “sensitivity under hypoxic versus normoxic conditions” value in data set [7] is recorded as “significantly more sensitive”. The “% Cell Survival” value in the data set on HL-60 cells [8] (5 μM, fresh drug solution) turned out to be 99.8 ± 1.9%; in the data set on HL-60 cells [8] (10 μM, drug stored for 3 weeks at 4° C.), 70.0 ± 9.8%; with HL-60 cells [8] (10 μM, fresh drug solution), 59.2 ± 4.1%; in the data set on HL-60 cells [8] (30 μM, drug stored for 3 weeks at 4° C.) it was 87.0 ± 23%; in the data set on HL-60 cells [8] (30 μM, fresh drug solution), 3.0 ± 1.4%; in the data set with HL-60 cells [8] (100 μM, drug stored for 3 weeks at 4° C.), 2.3 ± 0.3%. The “% Cell Survival” value in the data set with HL-60 cells [8] (100 μM, fresh drug solution) was 2.5 ± 0.8%. Also, the “sensitivity of mitochondria-defect cells compared to parental cells” value in data set [9] is listed as “more sensitive”.

On to `O=C(O)O.O=C([O-])C(=O)CBr.[Na+]` [S-Glycolycin, Sodium 3-bromo-2-oxopropionate carbonic acid], for which the “concentration that completely depleted cellular ATP” value in data set [1] and in [3] was 0.03 mM throughout. For the same molecule, in data set [1] (not at 10 μM), the “concentration inducing severe ATP depletion” value fell in the range of 30 to 50 µM. Also, in data set [10], the “sensitivity compared with p53-expressing colon cancer cells” value was “similarly sensitive”. Also, in the data set with HL-60/AR cells [4], the “sensitivity of HL-60/AR compared to parental HL-60 cells” value was “equally sensitive”. This molecule also showed a cells undergoing apoptosis in the data set on HL-60 cells [5] of over 90%. Further, the “sensitivity of Bcl-2 transfected cells compared to transfected control (Neo)” value in data set [11] is “remain sensitive”. Further, the reduced colony formation entry in data set [12] (40 μM in combination with radiation (6 Gy), hypoxic conditions) is on record as “more than 99.9%”. Also, the “sensitivity under hypoxic conditions” value in data set [12] (drug alone, hypoxic versus normoxic) is “more sensitive”. Besides, in the data set on primary CLL cells, the “killing CLL cells as measured by IC50 values, comparison” value is recorded as “more potent than 3-BrPA”. In addition, the “change in BAD / phosphorylation at Ser112” value in [13] (10 μM) is on record as “did not cause any significant change”; in [13] (50 μM), “almost complete dephosphorylation”. Also, in data set [13] (3 h incubation), the “dephosphorylation of BAD, comparison” value was “more effective than 3-BrPA”. For the same molecule, in [14], the “sensitivity under hypoxic versus normoxic conditions” value is listed as “significantly more sensitive”. The “BAD dephosphorylation, comparison” value in data set [15] is “more active than 3-BrPA”. For the same molecule, the “protection by glutamine from cytotoxic effect” value with parental HL-60 cells is recorded as “partial protection”; in data set [16], “no protection”. Also, the pIC50 in data set [17] was 5.00 to 5.30; in data set [18], about 4.52.
